The values below come from PubChem BioAssay AID1259408 (Genetic Toxicology Data Bank (GENE-TOX), 2018).

The series deals with GENE-TOX genotoxicity assays, various organisms and cells. Kind of series: GENE-TOX mutagenicity studies. Particulars: for call: Assay Type: In vivo carcinogenicity studies.
[1] abbreviates: Species/Cell Type: Salmonella typhimurium (one or more of the five standard strains: TA98, TA100, TA1535, TA1537, and TA1538), Assay Type: Histidine reverse gene mutation, Ames assay, Assay Code: SAL+*, Activation: With metabolic activation, Evaluation Type: Evaluation A (Pre-1980).
[2] abbreviates: Species/Cell Type: Bacillus subtilis (H17 vs M45), Assay Type: Rec-assay, spot test, DNA effects (bacterial DNA repair), Assay Code: REW+, Evaluation Type: Evaluation A (Pre-1980).
Setting [3] is: Species/Cell Type: Nonhuman, Assay Type: Sister-chromatid exchange (SCE) in vitro, Assay Code: SC2+D, Dose Response: With dose response, Evaluation Type: Evaluation B (Post-1980).

Structures are written as SMILES. Activity calls are given as the source filed them. How the calls were made is not given here.

Turning to `CN(C)N=O`, the mutagenic call is “active; positive” (Species/Cell Type: Arabidopsis species, Assay Type: Gene mutation, Assay Code: ARM+D, Dose Response: With dose response, Evaluation Type: Evaluation A (Pre-1980)); “active; positive” (Species/Cell Type: Chinese hamster lung (V79) cells, Assay Type: Forward gene mutation at the HPRT or ouabain locus, Assay Code: V79+, Evaluation Type: Evaluation A (Pre-1980)); “active; positive” (Species/Cell Type: Chinese hamster ovary (CHO) cells, Assay Type: Forward gene mutation at the HPRT locus, Assay Code: CHO+*, Activation: With metabolic activation, Evaluation Type: Evaluation B (Post-1980)); “active; positive” (Species/Cell Type: Chinese hamster ovary (CHO) cells, Assay Type: Forward gene mutation at the HPRT locus, Assay Code: CHO+D, Dose Response: With dose response, Evaluation Type: Evaluation A (Pre-1980)); “active; positive” (Species/Cell Type: Drosophila melanogaster, Assay Type: Sex-linked recessive lethal gene mutation, Assay Code: SRL+, Evaluation Type: Evaluation A (Pre-1980)); “active; positive” (Species/Cell Type: Drosophila melanogaster, Sex: Male, Assay Type: Heritable translocation test, chromosome aberrations, Assay Code: DHT+, Evaluation Type: Evaluation A (Pre-1980)). The mutagenic call is, setting by setting: (Species/Cell Type: Escherichia coli WP2, Assay Type: Tryptophan reverse gene mutation, Assay Code: WP2+*, Activation: With metabolic activation, Evaluation Type: Evaluation A (Pre-1980)) “active; positive”; (Species/Cell Type: Escherichia coli WP2 UVRA, Assay Type: Tryptophan reverse gene mutation, Assay Code: WPU+*, Activation: With metabolic activation, Evaluation Type: Evaluation A (Pre-1980)) “active; positive”; (Species/Cell Type: Escherichia coli polA (W3110 vs P3478), Assay Type: Rec-assay, DNA effects (bacterial DNA repair), Assay Code: RE2+, Evaluation Type: Evaluation A (Pre-1980)) “active; positive”; (Species/Cell Type: Escherichia coli polA (W3119 vs P3478), Assay Type: Rec-assay, DNA effects (bacterial DNA repair), Assay Code: RE1T, Evaluation Type: Evaluation A (Pre-1980)) “no conclusion”; (Species/Cell Type: Fischer rat embryo (RLV/1706) cells, Assay Type: Cell transformation, viral enhanced, Assay Code: CTRT, Evaluation Type: Evaluation A (Pre-1980)) “no conclusion”; (Species/Cell Type: Human diploid fibroblasts, Assay Type: Unscheduled DNA synthesis (UDS) in vitro, DNA effects, Assay Code: UDH+D, Dose Response: With dose response, Evaluation Type: Evaluation A (Pre-1980)) “active; positive”. For the same molecule, the mutagenic call is “active; positive” (Species/Cell Type: Human lymphocytes, Assay Type: Sister-chromatid exchange (SCE) in vitro, Assay Code: SCL+D*, Activation: With metabolic activation, Dose Response: With dose response, Evaluation Type: Evaluation B (Post-1980)); “active; positive” (Species/Cell Type: Human, Assay Type: Sister-chromatid exchange (SCE) in vitro, Assay Code: SC1+D*, Activation: With metabolic activation, Dose Response: With dose response, Evaluation Type: Evaluation B (Post-1980)); “inactive; negative” (Species/Cell Type: Mammalian germ cells, Sex: Male, Assay Type: Chromosome aberrations in vivo, Assay Code: CY9-, Evaluation Type: Evaluation A (Pre-1980)); “active; positive” (Species/Cell Type: Mammalian polychromatic erythrocytes, Assay Type: Micronucleus test, chromosome aberrations, Assay Code: MNT+, Evaluation Type: Evaluation A (Pre-1980)); “inactive; negative” (Species/Cell Type: Mouse germ cells, Sex: Male, Assay Type: Unscheduled DNA synthesis (UDS) in vivo, DNA effects, Assay Code: UDT-, Evaluation Type: Evaluation A (Pre-1980)); “active; positive” (Species/Cell Type: Mouse lymphoma (L5178Y) cells, Assay Type: Forward gene mutation at the thymidine kinase (TK) locus, chromosome aberrations, Assay Code: L51+*, Activation: With metabolic activation, Evaluation Type: Evaluation A (Pre-1980)). Further, the mutagenic call is, setting by setting: (Species/Cell Type: Mouse, Sex: Female, Assay Type: Spot test, gene mutation, Assay Code: MSTT, Evaluation Type: Evaluation A (Pre-1980)) “no conclusion”; (Species/Cell Type: Mouse, Sex: Male, Assay Type: Sperm morphology, Assay Code: SPI-, Evaluation Type: Evaluation A (Pre-1980)) “inactive; negative”; (Species/Cell Type: Neurospora crassa, Assay Type: Forward gene mutation, Assay Code: NEF+*, Activation: With metabolic activation, Evaluation Type: Evaluation A (Pre-1980)) “active; positive”; (Species/Cell Type: Neurospora crassa, Assay Type: Reverse gene mutation, Assay Code: NER+, Evaluation Type: Evaluation A (Pre-1980)) “active; positive”; (Species/Cell Type: Nonhuman, Assay Type: Chromosome aberrations in vitro, Assay Code: CY&+D*, Activation: With metabolic activation, Dose Response: With dose response, Evaluation Type: Evaluation A (Pre-1980)) “active; positive”; (Species/Cell Type: Nonhuman, Assay Type: Sister-chromatid exchange (SCE) in vitro, Assay Code: SC2+D, Dose Response: With dose response, Evaluation Type: Evaluation A (Pre-1980)) “active; positive”. Also, the mutagenic call (Species/Cell Type: Nonhuman, Assay Type: Sister-chromatid exchange (SCE) in vivo, Assay Code: SC3+D, Dose Response: With dose response, Evaluation Type: Evaluation A (Pre-1980)) is “active; positive”; the mutagenic call (Species/Cell Type: Rat primary hepatocytes, Assay Type: Unscheduled DNA synthesis (UDS) in vitro, DNA effects, Assay Code: UDP+, Evaluation Type: Evaluation A (Pre-1980)) was “active; positive”; the mutagenic call (Species/Cell Type: Rodents, Sex: Male, Assay Type: Dominant lethal test, Assay Code: DLTT, Evaluation Type: Evaluation A (Pre-1980)) was “no conclusion”; the mutagenic call (Species/Cell Type: Saccharomyces cerevisiae, Assay Type: Forward gene mutation, Assay Code: YEF+*, Activation: With metabolic activation, Evaluation Type: Evaluation A (Pre-1980)) was “active; positive”; the mutagenic call (Species/Cell Type: Saccharomyces cerevisiae, Assay Type: Mitotic recombination or gene conversion, Assay Code: YEC+*, Activation: With metabolic activation, Evaluation Type: Evaluation A (Pre-1980)) was “active; positive”; the mutagenic call (Species/Cell Type: Saccharomyces cerevisiae, Assay Type: Mitotic recombination or gene conversion, Assay Code: YEH+, Evaluation Type: Evaluation A (Pre-1980)) is “active; positive”. Besides, the mutagenic call is “active; positive” under setting [1]; “active; positive” (Species/Cell Type: Salmonella typhimurium, Escherichia coli, Neurospora crassa, Saccharomyces cerevisiae, Chinese hamster ovary (CHO) and l, Assay Type: Forward and reverse gene mutation, chromosome aberrations, mitotic recombination and gene conversion, DNA effects, host-, Assay Code: HM4+, Evaluation Type: Evaluation A (Pre-1980)); “active; positive” (Species/Cell Type: Salmonella typhimurium, Assay Type: Forward and reverse gene mutation, body fluid assay, Assay Code: BFU+, Evaluation Type: Evaluation A (Pre-1980)); “active; positive” (Species/Cell Type: Schizosaccharomyces pombe, Assay Type: Forward gene mutation, Assay Code: YEY+*, Activation: With metabolic activation, Evaluation Type: Evaluation A (Pre-1980)); “no conclusion” (Species/Cell Type: Syrian hamster embryo (SHE) cells, Assay Type: Cell transformation, clonal assay, Assay Code: CTCT, Evaluation Type: Evaluation A (Pre-1980)). Also, the call (Species/Cell Type: Nonhuman, Assay Code: CCG+, Evaluation Type: Evaluation A (Pre-1980)) is “active; positive”.
Turning to `CC(=O)[O][Hg][c]1ccccc1`, the mutagenic call is, setting by setting: under setting [2], “active; positive”; (Species/Cell Type: Drosophila melanogaster, Assay Type: Aneuploidy, sex chromosome gain, chromosome aberrations, Assay Code: DAG+F, Evaluation Type: Evaluation A (Pre-1980)) “active; positive”; (Species/Cell Type: Drosophila melanogaster, Assay Type: Aneuploidy, whole sex chromosome loss, chromosome aberrations, Assay Code: DAC+F, Evaluation Type: Evaluation A (Pre-1980)) “active; positive”.
With `CCC(=O)ONC(=O)c1ccc2ccccc2c1`, the mutagenic call under setting [3] was “active; positive”.
Regarding `[O]=[V]`, under setting [2], the mutagenic call was “active; positive”.
As for `C#C[C@]1(O)CC[C@H]2[C@@H]3CCc4cc(OC)ccc4[C@H]3CC[C@@]21C` (tested in a mixture with another compound), where the note is “Species/Cell Type: Human, Sex: Male, Assay Type: Sperm morphology, Assay Code: SPH+, Evaluation Type: Evaluation A (Pre-1980)”, the mutagenic call is “active; positive”.
As for `CCN(Cc1cccc(S(=O)(=O)O)c1)c1ccc(C(=C2C=CC(=[N+](CC)Cc3cccc(S(=O)(=O)O)c3)C=C2)c2ccccc2S(=O)(=O)[O-])cc1`, the mutagenic call was “inactive; negative” (Species/Cell Type: Bacillus subtilis (H17 vs M45), Assay Type: Rec-assay, spot test, DNA effects (bacterial DNA repair), Assay Code: REW-, Evaluation Type: Evaluation A (Pre-1980)); “inactive; negative” (Species/Cell Type: Salmonella typhimurium (one or more of the five standard strains: TA98, TA100, TA1535, TA1537, and TA1538), Assay Type: Histidine reverse gene mutation, Ames assay, Assay Code: SAL-, Evaluation Type: Evaluation A (Pre-1980)).
As for `Cc1nc(N)cc2c1[nH]c1ccccc12`, the mutagenic call is “active; positive” (Species/Cell Type: Human lymphocytes, Assay Type: Sister-chromatid exchange (SCE) in vitro, Assay Code: SCL+, Evaluation Type: Evaluation B (Post-1980)); “active; positive” (Species/Cell Type: Human, Assay Type: Sister-chromatid exchange (SCE) in vitro, Assay Code: SC1+, Evaluation Type: Evaluation B (Post-1980)); “active; positive” under setting [3].
For the molecule `C[N+](C)(C)CCCl`, the call (Species/Cell Type: Nonhuman, Assay Code: CCG-, Evaluation Type: Evaluation A (Pre-1980)) is “inactive; negative”. Further, under “Species/Cell Type: Vicia faba, Assay Type: Chromosome aberrations, Assay Code: VIC+D, Dose Response: With dose response, Evaluation Type: Evaluation A (Pre-1980)”, the mutagenic call was “active; positive”.
As to `O=C1CCCc2c1ccc1c2ccc2ccccc21`, the mutagenic call under setting [1] was “active; positive”.
